{"source": "patent US6767917B1", "about": "“Amorphous torasemide modification” (Pliva d.d., priority 2000, dated 2004)", "key": {"[1]": {"test": "Solid-state stability of the amorphous modification (conversion into crystal modifications)", "format": "physicochemical", "conditions": "normal storage conditions, at crushing and compressing"}, "[2]": {"test": "Release of the active substance in water (USP 24)", "format": "physicochemical", "conditions": "for Released torasemide: water, USP 24, 37° C., 50 rpm, 1000 ml", "method": "The amorphous torasemide modification as such is suitable for the preparation of pharmaceutical prepartions having short-term or prolonged actions. The amorphous torasemide modification prepared according to Example 1 of the present invention was subjected to the test of the release of the active substance in water at a temperature of 37° C. (USP 24) and the results are represented in Table 1. [table]"}}, "data": [{"compound": "Cc1cccc(Nc2ccncc2S(=O)(=O)NC(=O)NC(C)C)c1", "note": "[amorphous torasemide modification, N-(1-methylethylaminocarbonyl)-4-(3-methyl-phenylamino)-3-pyridinesulfonamide]", "values": [{"measurement": "Stability (no conversion into crystal modification I, II or III)", "setting": "[1]", "result": "stable"}, {"measurement": "Release profile in comparison with the known crystal torasemide modifications", "setting": "[2]; in water (USP 24), same medium", "result": "slower release"}, {"measurement": "Released torasemide", "setting": "[2]; time 0 minutes", "result": 0, "unit": "%"}, {"measurement": "Released torasemide", "setting": "[2]; time 15 minutes", "result": 6.8, "unit": "%"}, {"measurement": "Released torasemide", "setting": "[2]; time 30 minutes", "result": 10.2, "unit": "%"}, {"measurement": "Released torasemide", "setting": "[2]; time 45 minutes", "result": 13.0, "unit": "%"}, {"measurement": "Released torasemide", "setting": "[2]; time 60 minutes", "result": 15.9, "unit": "%"}, {"measurement": "Released torasemide", "setting": "[2]; time 90 minutes", "result": 20.4, "unit": "%"}, {"measurement": "Released torasemide", "setting": "[2]; time 120 minutes", "result": 24.9, "unit": "%"}]}]}
